# In PMC8568970 (Nature Communications, 2021):
# Entries after “also recorded” stand apart in the source; their conditions may differ. Ends that are not written are not given here. * marks the point of attachment. Octanoyl = CCCCCCCC(=O)*
# Legend:
# [1] = system: GHSR and Gi signaling pathway; settings: cited from earlier work
# From the text: The GHSR and Gi signaling ...
# GHSR mutants [2] = assay: Calcium mobilization assay, GHSR mutants (results in words); type: cell-based, human
# Procedure: (§1) Calcium mobilization assay to measure GHSR signaling was carried out in HEK-293T cells cultured in DMEM supplemented with 10% (vol/vol) FBS (Fisher Scientific). The cDNAs encoding human GHSR was cloned into the pcDNA3.1(+) vector (Invitrogen) with a FLAG peptide fused to the N terminus. Mutant variants were then generated by site-directed mutagenesis and all mutants were fully sequenced. Various GHSR constructs were transfected to HEK-293T cells using FuGENE Transfection Reagent (Promega). The surface expression of wtGHSR and various mutants in HEK-293T cells was determined and confirmed using FACS with a fluorescent FLAG M1 antibody (homemade).
# (§2) To measure the agonist-induced calcium release, 50 μL dye loading buffer made of Hank’s Balanced Salt Solution (HBSS) with 5 μM Fluo-4 (Sigma), 0.2% pluronicacid, and 1% FBS was added to the GHSR-expressing cells and incubated for 1 h at 37 °C. Cells were then washed twice with HBSS buffer and left at room temperature in 50 μL HBBS. Fluo-4 fluorescence intensity (excitation 480 nm, emission 520 nm) was measured as an indicator of calcium release in a multimode reader (Spark 20 M, TECAN). […] The data were analyzed in GraphPad Prism 8 using the one site dose-response stimulation method. Results were presented as mean ± S.D. from three independent experiments.
# wild type GHSR [3] = assay: HTRF competition between dy647-JMV2959 and ghrelin in lipid discs; type: binding, human
# From the text: (§3) Human GHSR was expressed in E. coli inclusion bodies, folded in amphipol A8-35, and then inserted into lipid nanodiscs formed with MSP1E3D1 and POPC:POPG (3:2 molar ratio) containing or not 10% cholesterol, as described in Damian et al.[54]. After insertion into nanodiscs, active receptor fractions were purified using affinity chromatography with the biotinylated version of the JMV2959 antagonist immobilized on a streptavidin column. GHSR containing disks were separated from aggregates and possible trace amounts of the ligand through a size-exclusion chromatography step on a Superdex 200 increase 10/300 GL column (GE Healthcare) using a 25 mM Na-HEPES, 150 mM NaCl, 0.5 mM EDTA, pH 7.5 buffer as the eluent. GTP turnover was assessed as described previously. All experiments were carried out at 15 °C. The receptor was first incubated with the isolated G protein and, when applicable, the ligand (10 µM) for 30 min in a 25 mM HEPES, 100 mM NaCl, 5 mM MgCl2, pH 7.5 buffer. GTP turnover was then started by adding GTP (5 µM) and GDP (10 µM), and the amount of remaining GTP was assessed after 10 min incubation at 15 °C using the GTPase-Glo assay (Promega). The signal was normalized in each case to that in the absence of receptor (100%).
# (§4) Competition ligand-binding assays were performed using the HTRF signal between GHSR labeled with Lumi-4 Tb and the JMV2959 antagonist labeled with dy647. Increasing concentrations in the competing compound were added to a receptor: antagonist mixture (100 nM concentration range). In all cases, the ligand: receptor mixtures were incubated for 30 min at 15 °C and the HTRF signal recorded using a Cary Eclipse spectrofluorimeter (Varian) with an excitation wavelength set at 337 nm and an emission wavelength at 665 and 620 nm. All binding data were analyzed using Prism 8.0.
# (§5) Supplementary Figure 2. Potential cholesterol binding sites and effects of cholesterol in GHSR signaling. (a) Cryo-EM density maps of two cholesterol molecules modeled in the structure of ghrelin-GHSR-Gi.GHSR is colored in slate. Cholesterol molecules are shown as grey sticks. […]
# GHSR mutants [4] = settings: cited from earlier work
# GHSR mutants [5] = assay: HTRF-monitored binding of labeled ghrelin, GHSR mutants (results in words); parameters: species or system human; settings: Supplementary Fig. 3b
# Procedure: as §4
# GHSR mutants. (a) Surface expression levels of GHSR mutants tested in Figure 2. For each GHSR mutant, the expression level was determined by measuring the fluorescence intensity of transfected HEK-293 cells stained with a fluorescent anti-FLAG antibody that could bind to the N-terminal FLAG peptide of each GHSR construct. BG means background, representing results from non-transfected HEK-293 cells. Each column represents results shown as mean ± s.d. from 3 wells of cells transiently transfected with each GHSR mutant. (b) HTRF-monitored binding of […]
# POPC:POPG lipid discs. The binding data are presented as variations in the HTRF ratio as a […]
# Each data point represents mean ± SD of three […]
# ibutamoren (yellow). The receptors are colored in slate and green, respectively. ECL2 and ECL3 show notable conformational differences. […]
# GHSR [6] = settings: signaling through GHSR, under nutritional or physiological challenges; cited from earlier work
# From the text: It mainly signals through the growth hormone secretagogue receptor (GHSR, or ghrelin receptor), a class A G protein-coupled receptor (GPCR). […] In addition, GHSR plays critical role in the mod ...
# GHSR [7] = settings: cited from earlier work
# From the text: It mainly signals through the growth hormone secretagogue receptor (GHSR, or ghrelin receptor), a class A G protein-coupled receptor (GPCR). […] The GHSR and Gi signaling ...
# wild type GHSR [8] = assay: GTP turnover assay for Gi catalyzed by GHSR in nanodiscs; type: biochemical, human
# From the text: as §3
# as §5, with “sticks. (b) GTP turnover for Gi catalyzed by wild type GHSR in nanodiscs containing 10%” for “sticks.”
# normalized to that obtained for the G protein in the absence of receptor (Gi panels), and data is mean ± SD of five experiments. Statistical values were obtained by means of two-sided […]
# loaded receptor, respectively). […]
# the absence or presence of 10% cholesterol (molar ratio) into the lipid discs. Each data point represents mean ± SD of three experiments.
# (1 picture or pasted object on this page, not shown here)
# GHSR mutant R102A = assay: Calcium mobilization assay, R102A; type: cell-based, human; settings: Fig. 2f
# Procedure: Ghrelin residues are labeled in orange. […] GHSR bound to ibutamoren is colored green. Ibutamoren is shown as yellow sticks. e Ibutamoren binding pocket. f Dose-dependent action of ibutamoren on wtGHSR and mutants. In c and f, agonist-induced GHSR signaling was measured by Ca^2+ mobilization assay. Each data point represents mean ± S.D. from three independent assays. Polar interactions are shown as dashed lines in (a, b, and e).
# as §1, with “Mutant variants were then generated by site-directed mutagenesis and all mutants were fully sequenced. Various GHSR constructs were transfected to HEK-293T cells using FuGENE Transfection Reagent (Promega).” left out
# as §2, with “Cells were then washed twice with HBSS buffer and left at room temperature in 50 μL HBBS.” left out, “Results were presented as mean ± S.D. from three independent experiments.” left out
# [9] = reconstituted lipid nanodiscs, 10% cholesterol
molecule,measurement,setting,value
"ghrelin: 28-amino acid orexigenic peptide hormone; octanoylation at position-3 serine; endogenous GHSR agonist (Tocris) (GSS(Octanoyl)FLSPEHQRVQQRKESKKPPAKLQPR; UniProt Q9UBU3 24-51, looked up)",glucose-induced insulin release,[1],attenuated glucose-induced insulin release
same,"EC50 of ghrelin in inducing GHSR signaling, effect of the four TM7 proline mutations","GHSR mutants [2]; I297P, A298P, Q299P, I300P vs wtGHSR, 3 independent assays",didn't significantly affect the EC50s of ghrelin
same,"agonistic action of ghrelin, effect of proline mutations at the extracellular end of TM7","GHSR mutants [2]; individual residues E297 to I300 to proline, Supplementary Fig. 4b",didn't significantly affect the agonistic action of ghrelin; also recorded: not critical for the agonistic action of ghrelin
same,"GHSR signaling induced by ghrelin, effect of mutations of hydrophobic residues in cavity II","GHSR mutants [2]; mutations to larger or polar residues, Fig. 2c",compromised GHSR signaling induced by ghrelin
same,decrease of Kd value for ghrelin in the presence of cholesterol,"wild type GHSR [3]; 10% cholesterol vs none, lipid discs",about 2 fold
same,"potency of ghrelin in activating GHSR, effect of mutations F279, F312, W276",GHSR mutants [4]; individual mutations in the aromatic cluster,significantly lowered the potency of ghrelin
same,"potency of ghrelin, effect of mutations E124, R283, Q120",GHSR mutants [4]; individual mutations to non-polar residues,decreased potency of ghrelin
same,"ghrelin binding, effect of salt bridge mutations",GHSR mutants [5]; E124 and R283 to alanine or glutamine,could almost abolish ghrelin binding
same,"affinity of GHSR for ghrelin, effect of alanine mutations","GHSR mutants [5]; individual mutations I178, L181, F286 to alanine",decreased affinity of GHSR for ghrelin
same,growth hormone secretion and food intake,GHSR [6],stimulates growth hormone secretion and food intake
Cc1cc(-c2ccc3c(c2)CC[C@H]3N2CC3(CCN(C(=O)Cc4cn5cc(C)sc5n4)CC3)C2)ncn1 [PF-5190457],pharmacological character at GHSR,GHSR [7],GHSR inverse agonist
CC(C)CCC[C@@H](C)[C@H]1CC[C@H]2[C@@H]3CC=C4C[C@@H](O)CC[C@]4(C)[C@H]3CC[C@]12C [cholesterol],effect of cholesterol on affinity of GHSR for ghrelin,"wild type GHSR [3]; 10% cholesterol, lipid discs (peer review file)",slightly increase the affinity of GHSR for ghrelin
same,effect of cholesterol on binding of ghrelin to GHSR,wild type GHSR [3]; [9],positively regulate the binding of ghrelin to GHSR
same,effect of cholesterol on GHSR-induced Gi activation,"wild type GHSR [8]; 10% cholesterol (molar ratio), with and without 10 µM ghrelin, five experiments",subtle but significant positive effects
same,effect of cholesterol on basal activity (GTP turnover),"wild type GHSR [8]; no ligand, lower amplitude than in the presence of ghrelin",statistically significant effect
same,effect of cholesterol on activity of GHSR,wild type GHSR [8]; [9],positively regulate
CC(C)(N)C(=O)N[C@H](COCc1ccccc1)C(=O)N1CCC2(CC1)CN(S(C)(=O)=O)c1ccccc12 [ibutamoren],"action of ibutamoren, effect of mutation of R102",GHSR mutant R102A,compromised action of ibutamoren
"Liver expressed antimicrobial peptide 2 (LEAP2): Liver expressed antimicrobial peptide 2, GHSR inverse agonist or antagonist (MTPFWRGVSLRPIGASCRDDSECITRLCRKRRCSLSVAQE; UniProt Q969E1 38-77, looked up)",pharmacological character at GHSR,GHSR [7],GHSR inverse agonist or antagonist
